The results in this text go back to patent US7005526B2, “Thioether derivatives” (Hoffmann-La Roche Inc., priority 2004, dated 2006).

Series [1] deals with T1, HER-2 (Homo sapiens, UniProt P04626).
T1 construct: endogenous in cells; host or cells: Calu-3 (ATCC HTB-55) human non-small-cell lung cancer cells
Put plainly: Inhibition of HER-2 phosphorylation in Calu-3 tumor cell line. The format is cell-based. The settings on record: compound concentration 1 μM; Calu-3 cells, 16 h incubation; pY 1248 in HER-2; relative to DMSO control; read-out: Percent inhibition of HER-2-phosphorylation. The protocol: Inhibition of HER-2 Phosphorylation in Calu-3 Tumor Cell Line
2×10^5 Calu-3 (ATTC HTB-55) cells per well were plated in a 12-well plate. After 4 days cells were starved for 16 h in Dulbecco's Modified Eagle Medium (DMEM)/0.5% Fetal Calf Serum (FCS)/1% Glutamine. During this 16 h period cells were incubated with a solution of the test compound in dimethylsulfoxide (DMSO), so that the final concentration of the compound is 1 μM and the final volume of DMSO is 0.5%. Afterwards cells were lysed in lyses buffer containing 1% octyl phenol ethoxylate (Triton®X-100), 10% Glycerol, 1 mM Ethylene glycol-bis(2-aminoethylether)-N,N,N′,N′-tetraacetic acid (EGTA), 1.5 mM MgCl2, 150 mM NaCl, 50 mM 4-(2-hydroxyethyl)-1-piperazineethanesulfonic acid (HEPES) buffer pH 7.5, 1 mM Phenylmethylsulfonyl fluoride (PMSF), 10 μg/mL Aprotinin (a naturally occurring protein that is obtained and purified from cow's lungs) and […] Orthovanadate (Na3VO4). Cell lysates were analyzed on a Sodium Dodecyl Sulfate Polyacrylamide Gel Electrophoresis (SDS PAGE) and after transfer to a nitrocellulose membrane detected with an antibody specifically recognizing the pY 1248 in HER-2 (phosphorylated tyrosine residue 1248 of human epidermal receptor 2). After incubation with an anti rabbit antibody coupled to POD (Peroxidase available from Biorad, Munich, Germany) signals were detected by chemiluminescence (ECL, Amersham). Inhibition of HER-2 phosphorylation is calculated as percentage of the control, which is treated with DMSO only. This percentage was calculated according to the following formula: Inhibition in %=100−(Phosphorylated-HER2-Signal of Test Sample*100/Phosphorylated-HER2-Signal DMSO-control).

As a reminder, the melting point is the temperature of the solid-liquid transition. In general, inhibition refers to the drop in the measured response relative to a control, in per cent.

T1 sequence (P04626 23-1255): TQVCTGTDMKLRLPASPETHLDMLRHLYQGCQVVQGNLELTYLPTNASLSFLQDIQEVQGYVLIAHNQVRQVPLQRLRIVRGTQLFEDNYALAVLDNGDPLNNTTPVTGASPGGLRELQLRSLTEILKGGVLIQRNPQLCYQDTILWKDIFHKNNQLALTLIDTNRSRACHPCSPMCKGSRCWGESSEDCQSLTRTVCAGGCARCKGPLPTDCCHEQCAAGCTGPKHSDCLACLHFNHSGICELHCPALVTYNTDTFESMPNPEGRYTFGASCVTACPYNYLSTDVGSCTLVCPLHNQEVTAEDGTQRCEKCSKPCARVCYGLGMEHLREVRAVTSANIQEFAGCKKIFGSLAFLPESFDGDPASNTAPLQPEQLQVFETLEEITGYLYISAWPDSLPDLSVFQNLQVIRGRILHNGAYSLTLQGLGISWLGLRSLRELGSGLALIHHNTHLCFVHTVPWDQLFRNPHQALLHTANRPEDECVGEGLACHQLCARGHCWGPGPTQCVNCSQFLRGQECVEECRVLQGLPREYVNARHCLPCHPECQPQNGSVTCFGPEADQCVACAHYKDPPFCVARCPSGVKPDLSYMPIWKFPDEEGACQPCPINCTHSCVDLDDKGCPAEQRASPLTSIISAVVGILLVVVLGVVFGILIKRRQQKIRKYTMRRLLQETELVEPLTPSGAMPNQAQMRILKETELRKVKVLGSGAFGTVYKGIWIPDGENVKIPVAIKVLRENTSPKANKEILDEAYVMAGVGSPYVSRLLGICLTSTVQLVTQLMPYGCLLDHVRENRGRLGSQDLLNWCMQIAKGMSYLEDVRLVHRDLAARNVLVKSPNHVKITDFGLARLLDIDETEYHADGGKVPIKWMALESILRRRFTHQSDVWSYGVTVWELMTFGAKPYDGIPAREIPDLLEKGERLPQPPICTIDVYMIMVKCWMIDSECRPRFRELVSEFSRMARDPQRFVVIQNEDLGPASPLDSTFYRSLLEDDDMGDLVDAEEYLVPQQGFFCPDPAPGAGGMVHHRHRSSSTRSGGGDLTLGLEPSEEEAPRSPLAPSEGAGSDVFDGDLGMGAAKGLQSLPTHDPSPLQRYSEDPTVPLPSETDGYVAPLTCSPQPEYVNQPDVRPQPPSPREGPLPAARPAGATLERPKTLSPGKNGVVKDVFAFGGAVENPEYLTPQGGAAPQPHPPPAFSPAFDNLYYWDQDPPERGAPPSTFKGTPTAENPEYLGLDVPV

`[O-][S+](CCn1ccnn1)Cc1ccc(OCc2coc(C=Cc3ccc(SC(F)(F)F)cc3)n2)cc1` (centres unmarked) [Example 4, 1-[2-(4-{2-[2-(4-Trifluoromethylsulfanyl-phenyl)-vinyl]-oxazol-4-ylmethoxy}-phenylmethanesulfinyl)-ethyl]-1H-[1,2,3]triazole]: the melting point fell in the range of 182 to 184 °C.

With `Fc1cc(C(F)(F)F)ccc1/C=C/c1nc(COc2ccc(CSCCn3ccnn3)cc2)co1` [Example 7, 1-[2-(4-{2-[2-(E)-(2-Fluoro-4-trifluoromethyl-phenyl)-vinyl]-oxazol-4-ylmethoxy}-benzylsulfanyl)-ethyl]-1H-[1,2,3]triazole], the inhibition at 1 µM in series [1] was over 80%.

Take `FC(F)(F)c1ccc(C=Cc2nc(COc3ccc(CSCCn4ccnn4)cc3)co2)cc1` [Example 6, 1-[2-(4-{2-[2-(4-Trifluoromethyl-phenyl)-vinyl]-oxazol-4-ylmethoxy}-benzylsulfanyl)-ethyl]-1H-[1,2,3]triazole]: in series [1], the inhibition at 1 µM was in the range of 55 to 65%.

With `[O-][S+](CCn1ccnn1)Cc1ccc(OCc2coc(/C=C/c3ccc(OC(F)(F)F)cc3)n2)cc1` (centres unmarked) [Example 3, 1-[2-(4-{2-[2-(E)-(4-Trifluoromethoxy-phenyl)-vinyl]-oxazol-4-ylmethoxy}-phenylmethanesulfinyl)-ethyl]-1H-[1,2,3]triazole], in series [1], the inhibition at 1 µM is over 80%.

`Fc1cc(Cl)ccc1/C=C/c1nc(COc2ccc(CSCCn3ccnn3)cc2)co1` [Example 9, 1-[2-(4-{2-[2-(E)-(4-Chloro-2-fluoro-phenyl)-vinyl]-oxazol-4-ylmethoxy}-benzylsulfanyl)-ethyl]-1H-[1,2,3]triazole]: the inhibition at 1 µM in series [1] was 65 to 80%.

Consider `[O-][S+](CCn1ccnn1)Cc1ccc(OCc2coc(/C=C/c3ccc(C(F)(F)F)cc3F)n2)cc1` (centres unmarked) [Example 11, 1-[2-(4-{2-[2-(E)-(2-Fluoro-4-trifluoromethyl-phenyl)-vinyl]-oxazol-4-ylmethoxy}-phenylmethanesulfinyl)-ethyl]-1H-[1,2,3]triazole], for which, in series [1], the inhibition at 1 µM is over 80%.

As for `FC(F)(F)Oc1ccc(C=Cc2nc(COc3ccc(CSCCn4ccnn4)cc3)co2)cc1` [Example 1, 1-[2-(4-{2-[2-(4-Trifluoromethoxy-phenyl)-vinyl]-oxazol-4-ylmethoxy}-benzylsulfanyl)-ethyl]-1H-[1,2,3]triazole], the inhibition at 1 µM in series [1] fell in the range of 65 to 80%.

For the molecule `O=S(=O)(CCn1ccnn1)Cc1ccc(OCc2coc(/C=C/c3ccc(C(F)(F)F)cc3F)n2)cc1` [Example 10, 1-[2-(4-{2-[2-(E)-(2-Fluoro-4-trifluoromethyl-phenyl)-vinyl]-oxazol-4-ylmethoxy}-phenylmethanesulfonyl)-ethyl]-1H-[1,2,3]triazole], the inhibition at 1 µM in series [1] lay within 55 to 65%.
